Measurements reported in PubChem BioAssay (NCI).
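Following 48 hours of exposure in 96-well plates, responses at five concentrations were used to interpolate endpoints linearly. Abbreviation: GI50, concentration required for 50% inhibition of growth. At the TGI there is no net growth.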

Experiments:
Experiment in all cases: NCI anticancer screen, dose series, 48 h
786-0 renal = tested on: 786-0 renal
A498 renal = tested on: A498 renal
A549 NSCLC = tested on: A549 NSCLC
ACHN renal = tested on: ACHN renal
CAKI-1 renal = tested on: CAKI-1 renal
CCRF-CEM leukemia = tested on: CCRF-CEM leukemia
COLO 205 colon = tested on: COLO 205 colon
DU-145 prostate = tested on: DU-145 prostate
EKVX NSCLC = tested on: EKVX NSCLC
HCC-2998 colon = tested on: HCC-2998 colon
HCT-116 colon = tested on: HCT-116 colon
HCT-15 colon = tested on: HCT-15 colon
HL-60(TB) leukemia = tested on: HL-60(TB) leukemia
HOP-62 NSCLC = tested on: HOP-62 NSCLC
HOP-92 NSCLC = tested on: HOP-92 NSCLC
HS 578T breast = tested on: HS 578T breast
HT29 colon = tested on: HT29 colon
IGROV1 ovarian = tested on: IGROV1 ovarian
K-562 leukemia = tested on: K-562 leukemia
KM12 colon = tested on: KM12 colon
LOX IMVI melanoma = tested on: LOX IMVI melanoma
MALME-3M melanoma = tested on: MALME-3M melanoma
MDA-MB-231 breast = tested on: MDA-MB-231 breast
MDA-MB-435 = tested on: MDA-MB-435
MOLT-4 leukemia = tested on: MOLT-4 leukemia
NCI-H226 lung = tested on: NCI-H226 lung
NCI-H23 lung = tested on: NCI-H23 lung
NCI-H460 lung = tested on: NCI-H460 lung
NCI-H522 lung = tested on: NCI-H522 lung
NCI/ADR-RES ovarian = tested on: NCI/ADR-RES ovarian
OVCAR-4 ovarian = tested on: OVCAR-4 ovarian
OVCAR-5 ovarian = tested on: OVCAR-5 ovarian
OVCAR-8 ovarian = tested on: OVCAR-8 ovarian
PC-3 prostate = tested on: PC-3 prostate
RPMI-8226 leukemia = tested on: RPMI-8226 leukemia
RXF 393 renal = tested on: RXF 393 renal
SF-268 CNS = tested on: SF-268 CNS
SF-295 CNS = tested on: SF-295 CNS
SF-539 CNS = tested on: SF-539 CNS
SK-MEL-2 melanoma = tested on: SK-MEL-2 melanoma
SK-MEL-28 melanoma = tested on: SK-MEL-28 melanoma
SK-MEL-5 melanoma = tested on: SK-MEL-5 melanoma
SK-OV-3 ovarian = tested on: SK-OV-3 ovarian
SN12C renal = tested on: SN12C renal
SNB-19 CNS = tested on: SNB-19 CNS
SNB-75 CNS = tested on: SNB-75 CNS
SR leukemia = tested on: SR leukemia
SW-620 colon = tested on: SW-620 colon
T-47D breast = tested on: T-47D breast
TK-10 renal = tested on: TK-10 renal
U251 CNS = tested on: U251 CNS
UACC-257 melanoma = tested on: UACC-257 melanoma
UACC-62 melanoma = tested on: UACC-62 melanoma
UO-31 renal = tested on: UO-31 renal
M14 melanoma = tested on: M14 melanoma
MCF7 breast = tested on: MCF7 breast
OVCAR-3 ovarian = tested on: OVCAR-3 ovarian

## O=C(N=C1N(c2ccccc2)C(=O)C(=O)N1c1ccccc1)c1ccccc1
786-0 renal
  TGI: 12.5 µM
A498 renal
  TGI: 39.9 µM
A549 NSCLC
  TGI: 20.2 µM
ACHN renal
  TGI: 14.3 µM
CAKI-1 renal
  TGI: 31.4 µM
CCRF-CEM leukemia
  TGI: > 100 µM
COLO 205 colon
  TGI: 30 µM
DU-145 prostate
  TGI: 43.5 µM
EKVX NSCLC
  TGI: 32.1 µM
HCC-2998 colon
  TGI: 23.3 µM
HCT-116 colon
  TGI: 14.4 µM
HCT-15 colon
  TGI: 22.4 µM
HL-60(TB) leukemia
  TGI: > 100 µM
HOP-62 NSCLC
  TGI: 23.7 µM
HOP-92 NSCLC
  TGI: 20.8 µM
HS 578T breast
  TGI: 27.2 µM
HT29 colon
  TGI: 40.9 µM
IGROV1 ovarian
  TGI: 23.5 µM
K-562 leukemia
  TGI: > 100 µM
KM12 colon
  TGI: 46.9 µM
LOX IMVI melanoma
  TGI: 13.6 µM
MALME-3M melanoma
  TGI: 38.4 µM
MDA-MB-231 breast
  TGI: 18.6 µM
MDA-MB-435
  TGI: 99.2 µM
MOLT-4 leukemia
  TGI: > 100 µM
NCI-H226 lung
  TGI: 29.2 µM
NCI-H23 lung
  TGI: 33.6 µM
NCI-H460 lung
  TGI: 25.8 µM
NCI-H522 lung
  TGI: 6.23 µM
NCI/ADR-RES ovarian
  TGI: 25.8 µM
OVCAR-4 ovarian
  TGI: 13.3 µM
OVCAR-5 ovarian
  TGI: > 100 µM
OVCAR-8 ovarian
  TGI: 29.6 µM
PC-3 prostate
  TGI: 50.6 µM
RPMI-8226 leukemia
  TGI: 74.9 µM
RXF 393 renal
  TGI: 13.5 µM
SF-268 CNS
  TGI: 50.5 µM
SF-295 CNS
  TGI: 25.3 µM
SF-539 CNS
  TGI: 26.6 µM
SK-MEL-2 melanoma
  TGI: 36.9 µM
SK-MEL-28 melanoma
  TGI: 38.1 µM
SK-MEL-5 melanoma
  TGI: 32 µM
SK-OV-3 ovarian
  TGI: 19.6 µM
SN12C renal
  TGI: 24.1 µM
SNB-19 CNS
  TGI: 28.1 µM
SNB-75 CNS
  TGI: 25.1 µM
SR leukemia
  TGI: 41.4 µM
SW-620 colon
  TGI: 28.4 µM
T-47D breast
  TGI: 56.5 µM
TK-10 renal
  TGI: 33.2 µM
U251 CNS
  TGI: 24.4 µM
UACC-257 melanoma
  TGI: > 100 µM
UACC-62 melanoma
  TGI: 30.2 µM
UO-31 renal
  TGI: 29 µM

## CCCCCCCCCCCC[n+]1c(C)cc(N)c2ccccc21
DU-145 prostate
  GI50: 0.67 µM
  TGI: 1.97 µM
HOP-92 NSCLC
  GI50: 0.167 µM
  TGI: 1.19 µM
NCI/ADR-RES ovarian
  GI50: 3.18 µM
  TGI: > 100 µM
OVCAR-4 ovarian
  GI50: 0.327 µM
  TGI: 1.6 µM
OVCAR-5 ovarian
  GI50: 1.57 µM
  TGI: 3.28 µM
SK-MEL-2 melanoma
  GI50: 1.27 µM
  TGI: 2.72 µM
SK-MEL-28 melanoma
  GI50: 1.18 µM
  TGI: 2.47 µM
SK-MEL-5 melanoma
  GI50: 0.364 µM
  TGI: 1.4 µM
SK-OV-3 ovarian
  GI50: 1.13 µM
  TGI: 2.36 µM
UACC-257 melanoma
  GI50: 0.249 µM
  TGI: 0.915 µM

## Cc1ccc(S(=O)(=O)NC(=O)Nc2ccc(C(=O)O)c(O)c2)cc1
786-0 renal
  TGI: > 100 µM
A498 renal
  TGI: > 100 µM
A549 NSCLC
  TGI: > 100 µM
ACHN renal
  TGI: > 100 µM
CAKI-1 renal
  TGI: > 100 µM
CCRF-CEM leukemia
  TGI: > 100 µM
COLO 205 colon
  TGI: > 100 µM
DU-145 prostate
  TGI: > 100 µM
EKVX NSCLC
  TGI: > 100 µM
HCC-2998 colon
  TGI: > 100 µM
HCT-116 colon
  TGI: > 100 µM
HCT-15 colon
  TGI: > 100 µM
HL-60(TB) leukemia
  TGI: > 100 µM
HOP-62 NSCLC
  TGI: > 100 µM
HOP-92 NSCLC
  TGI: > 100 µM
HS 578T breast
  TGI: > 100 µM
HT29 colon
  TGI: > 100 µM
K-562 leukemia
  TGI: > 100 µM
KM12 colon
  TGI: > 100 µM
LOX IMVI melanoma
  TGI: > 100 µM
M14 melanoma
  TGI: > 100 µM
MALME-3M melanoma
  TGI: > 100 µM
MCF7 breast
  TGI: > 100 µM
MDA-MB-231 breast
  TGI: > 100 µM
MDA-MB-435
  TGI: > 100 µM
MOLT-4 leukemia
  TGI: > 100 µM
NCI-H226 lung
  TGI: > 100 µM
NCI-H23 lung
  TGI: > 100 µM
NCI-H460 lung
  TGI: > 100 µM
NCI/ADR-RES ovarian
  TGI: > 100 µM
OVCAR-3 ovarian
  TGI: > 100 µM
OVCAR-4 ovarian
  TGI: > 100 µM
OVCAR-5 ovarian
  TGI: > 100 µM
OVCAR-8 ovarian
  TGI: > 100 µM
PC-3 prostate
  TGI: > 100 µM
RPMI-8226 leukemia
  TGI: > 100 µM
RXF 393 renal
  TGI: > 100 µM
SF-268 CNS
  TGI: > 100 µM
SF-295 CNS
  TGI: > 100 µM
SF-539 CNS
  TGI: > 100 µM
SK-MEL-2 melanoma
  TGI: > 100 µM
SK-MEL-5 melanoma
  TGI: > 100 µM
SK-OV-3 ovarian
  TGI: > 100 µM
SNB-19 CNS
  TGI: > 100 µM
SNB-75 CNS
  TGI: > 100 µM
SR leukemia
  TGI: > 100 µM
SW-620 colon
  TGI: > 100 µM
TK-10 renal
  TGI: > 100 µM
U251 CNS
  TGI: > 100 µM
UACC-62 melanoma
  TGI: > 100 µM
UO-31 renal
  TGI: > 100 µM
